# Reference: ChEMBL document CHEMBL3259530, “Scaffold hopping approach to a new series of smoothened antagonists” (Bioorg Med Chem Lett, 2014)
# Molecular target: Protein smoothened (Homo sapiens, UniProt Q99835)
# Test: Inhibition of Smo receptor (unknown origin) expressed in NIH3T3 cells assessed as inhibition of Smo agonist SAG-induced GRE activation after 30 hrs by luciferase reporter gene assay
# Format: cell-based
# Protein smoothened, sequence (Q99835 whole entry): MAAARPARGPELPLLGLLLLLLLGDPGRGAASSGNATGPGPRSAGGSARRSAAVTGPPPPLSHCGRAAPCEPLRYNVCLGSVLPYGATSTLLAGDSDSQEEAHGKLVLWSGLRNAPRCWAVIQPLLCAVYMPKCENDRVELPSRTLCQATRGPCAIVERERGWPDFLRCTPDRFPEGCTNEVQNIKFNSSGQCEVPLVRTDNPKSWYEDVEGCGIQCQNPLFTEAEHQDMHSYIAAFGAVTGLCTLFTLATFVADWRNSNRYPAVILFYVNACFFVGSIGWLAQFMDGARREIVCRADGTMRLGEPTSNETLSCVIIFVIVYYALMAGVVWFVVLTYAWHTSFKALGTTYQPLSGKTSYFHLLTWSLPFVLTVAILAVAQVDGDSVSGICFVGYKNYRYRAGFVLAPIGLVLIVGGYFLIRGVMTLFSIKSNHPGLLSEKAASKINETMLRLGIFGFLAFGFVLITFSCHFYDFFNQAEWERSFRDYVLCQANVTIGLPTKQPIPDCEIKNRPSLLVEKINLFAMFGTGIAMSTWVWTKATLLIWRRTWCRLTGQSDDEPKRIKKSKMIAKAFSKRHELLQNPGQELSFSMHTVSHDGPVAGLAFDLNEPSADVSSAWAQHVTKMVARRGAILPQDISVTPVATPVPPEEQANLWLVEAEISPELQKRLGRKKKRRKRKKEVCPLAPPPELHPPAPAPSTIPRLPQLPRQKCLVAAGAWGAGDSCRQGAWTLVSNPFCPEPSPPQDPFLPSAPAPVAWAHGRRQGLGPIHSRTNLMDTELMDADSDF
row,SMILES,IC50 [nM]
1,COCC(=O)Nc1cn2c(n1)CN(c1cc(-c3ncc(C)cc3C)c(Cl)cn1)CC2,650
2,Cc1cnc(-c2cc(N3CCn4cc(CO)nc4C3)ncc2Cl)c(C)c1,4100
3,Cc1cnc(-c2cc(N3CCn4cc(C(=O)Nc5ccccn5)nc4C3)ncc2Cl)c(C)c1,270
4,Cc1cnc(-c2cc(N3CCn4cc(C(=O)N5CC(C)NC(C)C5)nc4C3)ncc2Cl)c(C)c1 (centres undefined),1500
5,CCNC(=O)c1cn2c(n1)CN(c1cc(-c3ncc(C)cc3C)c(Cl)cn1)CC2,1300
6,Cc1cnc(-c2cc(N3CCn4cc(NC(=O)C(F)(F)F)nc4C3)ncc2Cl)c(C)c1,1800
7,Cc1cnc(-c2cc(N3CCn4cc(C(=O)Nc5cccc(F)c5)nc4C3)ncc2Cl)c(C)c1,87
8,CCC(=O)Nc1cn2c(n1)CN(c1cc(-c3ncc(C)cc3C)c(Cl)cn1)CC2,890
9,Cc1cnc(-c2cc(N3CCn4cc(C(=O)OC(C)C)nc4C3)ncc2Cl)c(C)c1,380
10,Cc1cnc(-c2cc(N3CCn4cc(C(=O)Nc5ccccc5F)nc4C3)ncc2Cl)c(C)c1,350
11,Cc1cnc(-c2cc(N3CCn4cc(C(=O)Nc5ccccc5)nc4C3)ncc2Cl)c(C)c1,300
12,Cc1cnc(-c2cc(N3CCn4cc(C(=O)Nc5ccc(F)c(F)c5)nc4C3)ncc2Cl)c(C)c1,420
13,Cc1cnc(-c2cc(N3CCn4cc(C(=O)Nc5ccc(F)cc5)nc4C3)ncc2Cl)c(C)c1,440
14,Cc1cnc(-c2cc(N3CCn4cc(C(=O)N(C)CCO)nc4C3)ncc2Cl)c(C)c1,4100
15,CNC(=O)c1cn2c(n1)CN(c1cc(-c3ncc(C)cc3C)c(Cl)cn1)CC2,2700
16,Cc1cnc(-c2cc(N3CCn4cc(C(=O)Oc5ccccc5)nc4C3)ncc2Cl)c(C)c1,960
17,Cc1cnc(-c2cc(N3CCn4cc(C(=O)Nc5cccnc5)nc4C3)ncc2Cl)c(C)c1,200
18,Cc1cnc(-c2cc(N3CCn4cc(CN5CCOCC5)nc4C3)ncc2Cl)c(C)c1,910

# Second part, the molecule after the results:
row,IC50 [nM],SMILES
1,270,Cc1cnc(-c2cc(N3CCn4cc(C(=O)N5CCCC5)nc4C3)ncc2Cl)c(C)c1
2,690,CCOC(=O)c1cn2c(n1)CN(c1cc(-c3ncc(C)cc3C)c(Cl)cn1)CC2
3,520,Cc1cnc(-c2cc(N3CCn4cc(C(=O)NCC5CC5)nc4C3)ncc2Cl)c(C)c1
4,270,Cc1cnc(-c2cc(N3CCn4cc(C(=O)OCC5CC5)nc4C3)ncc2Cl)c(C)c1
5,> 10000,Cc1cnc(-c2cc(N3CCn4cc(C(=O)N5CC(O)C5)nc4C3)ncc2Cl)c(C)c1
6,> 10000,Cc1cnc(-c2cc(N3CCn4cc(C(=O)N5CCC(O)C5)nc4C3)ncc2Cl)c(C)c1 (centres undefined)
7,790,Cc1cnc(-c2cc(N3CCn4cc(C(=O)N5CCOCC5)nc4C3)ncc2Cl)c(C)c1
8,550,COC[C@H]1CCCN1C(=O)c1cn2c(n1)CN(c1cc(-c3ncc(C)cc3C)c(Cl)cn1)CC2
9,740,Cc1cnc(-c2cc(N3CCn4cc(C(=O)OC5CCCC5)nc4C3)ncc2Cl)c(C)c1
10,1200,Cc1cnc(-c2cc(N3CCn4cc(C(=O)N5CCC(O)CC5)nc4C3)ncc2Cl)c(C)c1
11,> 10000,Cc1cnc(-c2cc(N3CCn4cc(C(=O)O)nc4C3)ncc2Cl)c(C)c1
